Here are results for three compounds from patent publication US20230095495A1, “SKIN CONDITIONING COMPOSITION WITH HIGH CONCENTRATION OF UREA TO BOOST THE SKINCARE ACTIVES” (L'OREAL, priority 2021, published 2023).

For data set [1] the following is noted: acute oral toxicity, mutagenicity, skin irritation, skin sensitization, phototoxicity; cited from earlier work.
In another data set the test system is stratum corneum. Briefly: In vitro stratum corneum comparison of ΔT by differential scanning calorimetry (DSC). As to conditions: variation of INV #1 applied first without rinsing, then hydroxy-acid based peel moisturizer; compared to peel moisturizer alone. How it is done:
In studies, the effect of urea at various concentrations and using hydroxyethyl urea (HEU) was according to INV #1 (40% urea, 5% glycine, 0.7% triacetin, buffer) in which the amount and form of urea was varied. […] Studies were conducted with each of the tested compositions to evaluate effect of the compositions on the stratum corneum.
In Vitro Stratum Corneum Comparison of Δ T using differential scanning calorimetry (DSC) is used to characterize the stability of a protein or other biomolecule directly in its native form. It does this by measuring the heat change associated with the molecule's thermal denaturation when heated at a constant rate. Compositions were evaluated on SC samples according to the following procedure. Stratum corneum samples were equilibrated at 75% relative humidity (RH) overnight. Inventive and Comparative Compositions and control treatments applied on SC surface (0.1 g/sample) for 15 min in 75% RH. The SC surface was wiped clean and rinsed with DI water. Allow to dry in 75% RH overnight. The DSC profile was measured from 20° C. to 120° C. at 5° C./min.
As an initial step, each test composition was applied first to skin without rinsing, followed by application of a hydroxy-acid based peel composition in a moisturizer form.

Turning to `CC(c1ccccc1)c1ccc(O)cc1O` (stereo not drawn) [Phenylethyl resorcinol, phenylethyl resorcinol], in data set [1], the “adverse effects in basic toxicological tests” value is on record as “has not shown adverse effects”.
Turning to `NC(=O)NCCO` [hydroxyethyl urea], in the data set on stratum corneum, the “desquamation evidenced by stratum corneum disorganization, with increased amounts” value is on record as “increased desquamation”.
Turning to `NC(N)=O` [urea], in the data set on stratum corneum, the “desquamation evidenced by stratum corneum disorganization, with increased amounts” value was “increased desquamation”.
